Values after ≈ are worked out from the molar mass of the structure shown. Non-standard residues stand in square brackets, D forms with d. Residues, ends and D or L forms follow the SMILES beside them. ξ: configuration not given here. *: point of attachment. Tos = Cc1ccc(S(=O)(=O)*)cc1; ξP = O=C(O)C1CCCN1
Conditions: buffer; pH 7.4; 200.0 µM

Structure (SMILES)	solubility kinetic
COc1ccc2nc(C)cc(Nc3ccc(N4CCN(C)CC4)cc3)c2c1	> 54.4 µg/mL
CC1CCCCC1Nc1ncnc2sccc12 (stereo not drawn)	> 37.1 µg/mL
Cc1nc(NC(=O)c2cccnc2Cl)sc1C	> 40.2 µg/mL
S=C(Nc1ccccc1)N1CCCCCCC1	> 37.3 µg/mL
CN(C)C(=O)c1ccccc1NC(=O)Cc1cccc2ccccc12	49.8 µg/mL (≈ 150 µM)
CCOC(=O)C1CCN(C(=S)Nc2ccc(C)cc2)CC1	19.9 µg/mL (≈ 64.9 µM)
O=C(COC(=O)C1CCCO1)Nc1nc(-c2ccc(F)cc2)cs1 (stereo not drawn)	> 52.6 µg/mL
Cc1cccc(CN2CCSCC2)c1	7 µg/mL (≈ 33.8 µM)
CN(C(=O)CCn1c(=S)oc2ccccc21)C1CCCCC1	> 47.8 µg/mL
N#CCCN1CCN(S(=O)(=O)c2ccc3c(c2)CCC3)CC1	> 47.9 µg/mL
CC1CCCCC1NC(=O)COc1cccnc1[N+](=O)[O-] (stereo not drawn)	> 44 µg/mL
Cc1cc(C)c(S(=O)(=O)N2CCN(C(=O)N(C)C)CC2)c(C)c1	> 50.9 µg/mL
COc1ccc(C(=O)c2c[nH]c(C(=O)N=CN(C)C)c2)cc1	42 µg/mL (≈ 140 µM)
CC(C)NC(=O)COc1ccccc1C#N	> 32.7 µg/mL
CCN1C(=O)/C(=C2\SC(N3CCOCC3)=NC2=O)c2ccccc21	0.9 µg/mL (≈ 2.62 µM)
COCc1c(C(=O)OCC(=O)c2ccc[nH]2)oc2ccccc12	11.1 µg/mL (≈ 35.4 µM)
COc1ccc(/C=C2\SC(=S)N(CC3CCCO3)C2=O)cc1 (stereo not drawn)	< 0.7 µg/mL
O=C(CCC(=O)N1CCN(c2ccccn2)CC1)c1cccs1	> 49.4 µg/mL
CCOC(=O)c1sc(NC(=O)CSC(=S)N2CCOCC2)nc1C	0.6 µg/mL (≈ 1.54 µM)
Cl.O=C(CN1CCCC1)N1c2ccccc2C=Cc2ccccc21	> 51.1 µg/mL
Cc1c(CN2CCN(CC(C)(C)C)C(CCO)C2)[nH]c2ccccc12 (stereo not drawn)	45.1 µg/mL (≈ 131 µM)
O=C(CNC(=O)c1cnccc1C(F)(F)F)c1cccc(Cl)c1	25.3 µg/mL (≈ 73.8 µM)
OC(CNCc1ccccc1)(c1ccccc1)c1ccccc1	> 45.5 µg/mL
CC1=CC(C)(C)N=C(Nc2nc(C)c3cc(C)cc(C)c3n2)N1	> 46.4 µg/mL

Structure (SMILES)	solubility kinetic
Cc1ccc(Nc2nc(=O)c3cccnc3s2)c(Br)c1	2.4 µg/mL (≈ 6.89 µM)
Cc1ccc(S(=O)(=O)NCC(=O)N2CCCC2C(=O)O)cc1 (stereo not drawn) (Tos-Gly-[ξP]-OH)	> 49 µg/mL
COc1ccc(S(=O)(=O)n2c([N+](=O)[O-])cnc2C)cc1OC	> 49.1 µg/mL
COc1ccc(N2CCOCC2)c(NC(=O)c2cccs2)c1	47.7 µg/mL (≈ 150 µM)
O=C(CCS(=O)(=O)c1ccccc1)Nc1nncs1	> 44.6 µg/mL
Cc1cc(/C(N)=N/OC(=O)Nc2cccc(C(F)(F)F)c2)no1	7.2 µg/mL (≈ 21.9 µM)
CCOC(=O)c1csc(NC(=O)c2cc(-c3ccccn3)nc3ccccc23)n1	1 µg/mL (≈ 2.47 µM)
O=[N+]([O-])c1ccc(CN2CCN(c3ncccn3)CC2)cc1	10.1 µg/mL (≈ 33.7 µM)
CSc1ccc(S(=O)(=O)Nc2ccc3c(c2)NC(=O)CC3)cc1	8 µg/mL (≈ 23 µM)
O=C(COC(=O)c1ccc(Cl)nc1)NC1CCCCCC1	> 46.6 µg/mL
N#Cc1ccc(NC(=O)CN2CCCC2)cc1Cl	> 39.6 µg/mL
Cc1c(Cl)cccc1NC(=S)NCc1ccco1	40.1 µg/mL (≈ 143 µM)
CC1CCN(C(=O)CSc2nc3ccccc3c(=O)[nH]2)CC1	> 47.6 µg/mL
O=C(NC(=S)Nc1ccccc1C(=O)O)c1ccc2ccccc2c1	38.2 µg/mL (≈ 109 µM)
Cl.c1csc(CN2CCNCC2)c1	> 38.3 µg/mL
Cc1cccc(NC(=O)COC(=O)c2ccc3nc(C)c(C)nc3c2)c1	3.6 µg/mL (≈ 10.3 µM)
Cc1nc2ccccc2c2c1CC(C(C)(Cl)Br)O2 (stereo not drawn)	26.7 µg/mL (≈ 81.7 µM)
CCCn1cccc(C(=O)Nc2ccc(OC)cc2)c1=O	> 42.9 µg/mL
COc1ccc(/C=N/Nc2nc(C)cc(=O)[nH]2)cc1OC	> 43.2 µg/mL
CSC1=NCCN1C(=O)c1ccc2ccccc2c1	1.9 µg/mL (≈ 7.03 µM)
CNC(=S)N1CCN(c2nc(-c3ccc(F)cc3)cs2)CC1	2.5 µg/mL (≈ 7.43 µM)
Cc1nc(SCC(=O)NCC2CCCO2)c2c(C)c(C)sc2n1 (stereo not drawn)	> 52.7 µg/mL
O=c1c(Cc2ccccc2)c(O)ccn1Cc1ccco1	25.9 µg/mL (≈ 92.1 µM)
CN(CC(=O)Nc1ccc(F)cc1)CC(=O)N1CCc2ccccc21	> 51.2 µg/mL

— PubChem BioAssay AID1996
